Experimental data published in US9844543B2, “Method of treating or preventing hyperlipidemia with caffeamide derivatives” (priority 2015, dated 2017).

Legend:
Assay type in all cases: in vivo, C57BL/6J mice
[1] = Measurement of hepatic lipids in high-fat diet-fed mice; conditions: 0.01 g/kg/day oral, week 12
Method: (§1) All animal procedures were performed as per guidelines provided by the Institutional Animal Care and Use Committee of Central Taiwan University of Science and Technology. Firstly, C57BL/6J mice (4-5 weeks old) were purchased from the National Laboratory Animal Breeding and Research Center, National Science Council, Taiwan, and were maintained on a 12-hour light/dark cycle (light cycle: 7 a.m. to 7 p.m.). Seven days after acclimation, the C57BL/6J mice were divided randomly into two groups: the control group (CON, n=9) was fed with low-fat diet (Diet 12450B, Research Diets, Inc., New Brunswick, N.J. 08901, USA), whereas the experimental group (n=36) was fed with a 45% high-fat diet (Diet 12451, Research Diets, Inc., New Brunswick, N.J. 08901, USA) for 12 weeks. […] The body weight was measured weekly throughout the experimentation. […] Livers and white adipose tissue (WATs, including epididymal mesenteric, and retroperitoneal WAT) were excised according to the defined anatomical landmarks, and the weight of the tissues was measured. […]
For hepatic lipid extraction, a 0.375 g liver samples were homogenized with 1 mL distill water for 5 minutes. The dried pellet was finally resuspended in 0.5 mL ethanol and analyzed using a triglycerides kit as used for analyzing the serum lipids set forth above.

[2] = test system: adipocytes from epididymal white adipose tissue; assay: Histopathology of epididymal white adipose tissue (adipocyte size); conditions: high-fat diet mice, 10 mg/kg/day oral; HF 6765.87, CON 3263.78
Method: as §1, with “weeks. The low-fat diet was composed of protein 20%, carbohydrate 70% and fat 10%, whereas the high-fat diet was composed of protein 20%, carbohydrate 35%, and fat 45% (of total energy, % kcal).” for “weeks.”

[3] = Body weight, weight gain and absolute tissue weights in high-fat diet-fed mice
Method: (§2) All animal procedures were performed as per guidelines provided by the Institutional Animal Care and Use Committee of Central Taiwan University of Science and Technology. Firstly, C57BL/6J mice (4-5 weeks old) were purchased from the National Laboratory Animal Breeding and Research Center, National Science Council, Taiwan, and were maintained on a 12-hour light/dark cycle (light cycle: 7 a.m. to 7 p.m.). Seven days after acclimation, the C57BL/6J mice were divided randomly into two groups: the control group (CON, n=9) was fed with low-fat diet (Diet 12450B, Research Diets, Inc., New Brunswick, N.J. 08901, USA), whereas the experimental group (n=36) was fed with a 45% high-fat diet (Diet 12451, Research Diets, Inc., New Brunswick, N.J. 08901, USA) for 12 weeks. The low-fat diet was composed of protein 20%, carbohydrate 70% and fat 10%, whereas the high-fat diet was composed of protein 20%, carbohydrate 35%, and fat 45% (of total energy, % kcal). After 8-week diet-induction period, the high-fat treated mice were randomly subdivided into four groups (n=9 per group), namely, control group (CON), high-fat control group (HF), TS group (including T1 and T2, representing mice treated with the compound of the present invention using a dosage of 10 mg/kg/day and 20 mg/kg/day, respectively), rosiglitazone treated group (Rosi; 1% methylcellulose 10 mg/kg body weight, obtained from GlaxoSmithKline, product number: BRL49653 C). TS and Rosi group were administrated through oral gavage one time per day from the 9th to the 12th week of the experiment while the mice were still on the high-fat diet. On the other hand, CON and HF groups were treated with vehicle only. The body weight was measured weekly throughout the experimentation. By the end of the experimentation, food was deprived from the mice (from 10 p.m. to 10 a.m.) On the next day (the 85th day), all mice were sacrificed for blood and tissue collection and analysis. The mice were untreated with TS or Rosi at the 85th day. Livers and white adipose tissue (WATs, including epididymal mesenteric, and retroperitoneal WAT) were excised according to the defined anatomical landmarks, and the weight of the tissues was measured. Tissues were immediately frozen using liqid nitrogen and then kept at −80° C. for the analysis of target gene expression. Heparin (30 units/mL, Sigma) was added into blood sample. Plasma samples were collected by centrifugation at […] for 15 minutes at 4° C. The separation of the plasma was finished within 30 minutes. Plasma was obtained for leptin assay.
Body weight of mice was monitored and measured daily at the same time throughout the experimentation. The differences between the body weight of the next day and the former day is defined as body weight gain. The pellet food was weighed and followed by being placed in the cage food container. Unconsumed pellet high-fat food was discarded each day and fresh pellet of high-fat diet was provided to ensure consistent food quality throughout the experimentation. The high-fat food was stored at 4° C.

[4] = Blood parameters assay (TG, FFA, TC, adiponectin, leptin) in high-fat diet-fed mice; conditions: 0.01 g/kg/day oral
Method: as §2, with “Seven days after acclimation, the C57BL/6J mice were divided randomly into two groups: the control group (CON, n=9) was fed with low-fat diet (Diet 12450B, Research Diets, Inc., New Brunswick, N.J. 08901, USA), whereas the experimental group (n=36) was fed with a 45% high-fat diet (Diet 12451, Research Diets, Inc., New Brunswick, N.J. 08901, USA) for 12 weeks. The low-fat diet was composed of protein 20%, carbohydrate 70% and fat 10%, whereas the high-fat diet was composed of protein 20%, carbohydrate 35%, and fat 45% (of total energy, % kcal).” left out
Blood samples (0.8 mL) were collected from the retro-orbital sinus of fasting mice and the plasma triglycerides (TG), total cholesterol (TC), and free fatty acids (FFA) were analyzed using commercial assay kits according to the manufacture's directions (Triglycerides-E test, Cholesterol-E test, and FFA-C test, Wako Pure Chemical, Osaka, Japan).
The levels of adiponectin and leptin were analyzed by ELISA using commercial assay kits according to manufacture's directions (mouse/rat adiponectin ELISA kit, B-Bridege International, GmbH, Germany, and mouse leptin ELISA kit, Morinaga, Yokohama, Japan).

[5] = 0.01 g/kg/day oral gavage weeks 9-12

## CN(CCOc1ccc(CC2SC(=O)NC2=O)cc1)c1ccccn1 (centres unmarked) [Rosi, rosiglitazone]
[1]
  Liver lipids: Total lipid: 60.2 ± 5.4 mg/g
  Liver lipids: Triacylglycerol: 42.6 ± 5.8 µmol/g
[2]
  average area of the cut of the adipocytes (epididymal white adipose tissue): 4600 µm²
[3]; [5]
  Absolute tissue weight BAT: 0.210 ± 0.023 g
  Absolute tissue weight MWAT: 0.238 ± 0.033 g
  Absolute tissue weight RWAT: 0.334 ± 0.057 g
  Absolute tissue weight Visceral fat: 1.330 ± 0.138 g
[3]; 0.01 g/kg/day oral gavage weeks 9-12, mean ± S.E. n=9
  Absolute tissue weight EWAT: 1.003 ± 0.103 g
[3]; 0.01 g/kg/day oral gavage weeks 9-12, week 12
  Weight gain: 0.91 ± 1.45 g
[4]; week 12
  Blood Adiponectin: 7.51 ± 0.53 ng/mL
  Blood FFA: 1.52 ± 0.16 meq/L
  Blood Leptin: 2.063 ± 0.111 µg/mL
  Blood TC: 134.9 ± 3.5 mg/dL
[4]; week 12, fasting
  Blood TG: 81.8 ± 5.8 mg/dL
